US20110034424A1, “METHOD FOR THE LONG TERM NSAID USE” (SUCAMPO AG, priority 2009, published 2011)

Assays:
[1] = tested on: ulcers induced by indomethacin and by stress; conditions: cited from earlier work
[2] = tested on: patients with osteoarthritis and/or rheumatoid arthritis; test: 12-week double-blinded, randomized, dose-ranging, placebo-controlled phase 2 trial of cobiprostone with naproxen; format: in vivo, human; conditions: for Drug-related gastrointestinal adverse event rate / Median number of days in the treatment period / Related adverse event: diarrhea / Related adverse event: gastritis / Related adverse event: nausea / Related overall adverse event rate / Withdrawal rate from the trial due to an adverse event / Retention rate at Week 8 / Retention rate at Week 12: naproxen 500 mg twice a day
Method: A total of 124 patients with osteoarthritis and/or rheumatoid arthritis were enrolled in 12-week, double-blinded, randomized, dose-ranging and placebo-controlled phase 2 trial. All patients in the trial received 500 mg of naproxen twice a day. There were four treatment cohorts: one cohort received placebo while the other three cohorts received 18 mcg of cobiprostone either once, twice or three times a day (daily totals of 18, 36 or 54 mcg, respectively).
Retention rate and withdrawal rate were evaluated by the following definitions.
Retention rate: The number of intent-to-treat subjects that remained in the trial at a specified week.
Withdrawal Rate: The number of randomized subjects that discontinued the trial. The reasons for discontinuation were:
b. Discontinued due to ulcer
The withdrawal rate can be expressed/calculated for a single reason such as adverse events, or for any combination of the discontinuation reasons.

## CC[C@H](C)CC(F)(F)[C@@]1(O)CC[C@H]2[C@@H](CC(=O)[C@@H]2CCCCCCC(=O)O)O1 [cobiprostone, 7{(2R,4aR,5R,7aR)-2-[(3S)-1,1-difluoro-3-methylpentyl]-2-hydroxy-6-oxooctahydrocyclopenta[b]pyran-5-yl}heptanoic acid]
[1]; animal studies, indomethacin-induced ulcers
  Formation of ulcers induced by indomethacin: protected against formation of ulcers
[1]; animal studies, stress-induced ulcers
  Formation of ulcers induced by stress: protected against formation of ulcers
[1]
  Safety in animal studies: acceptable safety
[2]; Week 12, 18, 36 and 54 mcg/day, dose-dependent increase
  Retention rates at Week 12 compared to naproxen with placebo: statistically significant
[2]; cobiprostone 18 mcg/day
  Drug-related gastrointestinal adverse event rate: 60.0%
  Median number of days in the treatment period: 60.0 days
  Related adverse event: diarrhea: 13.3%
  Related adverse event: gastritis: 13.3%
  Related adverse event: nausea: 10.0%
  Related overall adverse event rate: 60.0%
  Withdrawal rate from the trial due to an adverse event: 13.3%
  Retention rate at Week 8: 67%
[2]; cobiprostone 18 mcg/day, Week 12
  Retention rate at Week 12: 47%
[2]; cobiprostone 36 mcg/day
  Drug-related gastrointestinal adverse event rate: 67.7%
  Median number of days in the treatment period: 82.0 days
  Related adverse event: diarrhea: 32.3%
  Related adverse event: gastritis: 6.5%
  Related adverse event: nausea: 16.1%
  Related overall adverse event rate: 71.0%
  Withdrawal rate from the trial due to an adverse event: 16.1%
  Retention rate at Week 8: 66%
[2]; cobiprostone 36 mcg/day, Week 12
  Retention rate at Week 12: 52%
[2]; cobiprostone 54 mcg/day
  Drug-related gastrointestinal adverse event rate: 67.7%
  Median number of days in the treatment period: 83.0 days
  Related adverse event: diarrhea: 35.5%
  Related adverse event: gastritis: 9.7%
  Related adverse event: nausea: 16.1%
  Related overall adverse event rate: 67.7%
  Withdrawal rate from the trial due to an adverse event: 16.1%
  Retention rate at Week 8: 90%
[2]; cobiprostone 54 mcg/day, Week 12
  Retention rate at Week 12: 77%
[2]; overall, 18-54 mcg/day with naproxen 500 mg twice a day
  Tolerability in patients receiving NSAID therapy: well tolerated
